In brackets after ≈: the same amount, converted by molar mass.
System: not listed separately
Assay: Cytotoxicity against human HEK293 cells after 24 hrs by MTT assay
Format: cell-based
Details: not given

`CN(C)c1ccc(CN(C)c2nc(=O)c3cc(C(F)(F)F)cc([N+](=O)[O-])c3s2)cc1` and `Cc1ccc(CNc2nc(=O)c3cc(C(F)(F)F)cc([N+](=O)[O-])c3s2)n1C` cannot be ordered by CC50 at 24 h: > 10 µM for the first, > 10 µM for the second.

`COC(=O)[C@@H]1OC2(CCN(c3nc(=O)c4cc(C(F)(F)F)cc([N+](=O)[O-])c4s3)CC2)O[C@H]1c1ccccc1` and `CN(C(=O)CN1CCN(c2nc(=O)c3cc(C(F)(F)F)cc([N+](=O)[O-])c3s2)CC1)c1ccccc1` cannot be ordered by CC50 at 24 h: > 10 µM for the first, > 10 µM for the second.

With `CCCOCC1COC2(CCN(c3nc(=O)c4cc(C(F)(F)F)cc([N+](=O)[O-])c4s3)CC2)O1` (configuration not stated) the CC50 at 24 h was > 10 µM.

System: not listed separately
Assay: Cytotoxicity against human HeLa cells after 72 hrs by methylene blue staining
Format: cell-based
Details: not given

Compared with `CN(C)c1ccc(CN(C)c2nc(=O)c3cc(C(F)(F)F)cc([N+](=O)[O-])c3s2)cc1`, `Cc1ccc(CNc2nc(=O)c3cc(C(F)(F)F)cc([N+](=O)[O-])c3s2)n1C` is lower in CC50 at 72 h: > 50 µM for the first, 48 µM for the second.

First: COC(=O)[C@@H]1OC2(CCN(c3nc(=O)c4cc(C(F)(F)F)cc([N+](=O)[O-])c4s3)CC2)O[C@H]1c1ccccc1
Second: CN(C(=O)CN1CCN(c2nc(=O)c3cc(C(F)(F)F)cc([N+](=O)[O-])c3s2)CC1)c1ccccc1
The CC50 at 72 h of the first is higher: > 50 µM for the first, 39 µM for the second.

Compound `CCCOCC1COC2(CCN(c3nc(=O)c4cc(C(F)(F)F)cc([N+](=O)[O-])c4s3)CC2)O1` (configuration not stated) has a CC50 at 72 h of 43 µM.

System: not listed separately
Assay: Kinetic solubility of the compound at pH 7.4
Format: physicochemical
Details: buffer, read-out: Kinetic_solubility

Work on `CN(C(=O)CN1CCN(c2nc(=O)c3cc(C(F)(F)F)cc([N+](=O)[O-])c3s2)CC1)c1ccccc1` yielded a solubility kinetic of 11.9 µM (≈ 6.04 µg/mL).

System: not listed separately
Assay: Chemical stability in buffer
Format: physicochemical
Details: not given

Compared with `CN(C)c1ccc(CN(C)c2nc(=O)c3cc(C(F)(F)F)cc([N+](=O)[O-])c3s2)cc1`, `Cc1ccc(CNc2nc(=O)c3cc(C(F)(F)F)cc([N+](=O)[O-])c3s2)n1C` is lower in Stability: 95% for the first, 14% for the second.

Compared with `COC(=O)[C@@H]1OC2(CCN(c3nc(=O)c4cc(C(F)(F)F)cc([N+](=O)[O-])c4s3)CC2)O[C@H]1c1ccccc1`, `CN(C(=O)CN1CCN(c2nc(=O)c3cc(C(F)(F)F)cc([N+](=O)[O-])c3s2)CC1)c1ccccc1` is lower in Stability: 82% for the first, 78% for the second.

In the case of `CCCOCC1COC2(CCN(c3nc(=O)c4cc(C(F)(F)F)cc([N+](=O)[O-])c4s3)CC2)O1` (configuration not stated), the Stability is reported as 99%.

System: Plasma
Assay: Metabolic stability in mouse plasma
Format: ADME, cell-free
Details: not given

Going from `CN(C)c1ccc(CN(C)c2nc(=O)c3cc(C(F)(F)F)cc([N+](=O)[O-])c3s2)cc1` to `Cc1ccc(CNc2nc(=O)c3cc(C(F)(F)F)cc([N+](=O)[O-])c3s2)n1C`, the Stability falls from 104% to 93%.

Compared with `COC(=O)[C@@H]1OC2(CCN(c3nc(=O)c4cc(C(F)(F)F)cc([N+](=O)[O-])c4s3)CC2)O[C@H]1c1ccccc1`, `CN(C(=O)CN1CCN(c2nc(=O)c3cc(C(F)(F)F)cc([N+](=O)[O-])c3s2)CC1)c1ccccc1` is higher in Stability: 88% for the first, 115% for the second.

`CCCOCC1COC2(CCN(c3nc(=O)c4cc(C(F)(F)F)cc([N+](=O)[O-])c4s3)CC2)O1` (configuration not stated) showed a Stability of 103%.

System: not listed separately
Assay: Therapeutic index, ratio of GI50 for human HUVEC cells to MIC for Mycobacterium smegmatis 700084
Format: cell-based
Details: read-out: TI

For `CN(C)c1ccc(CN(C)c2nc(=O)c3cc(C(F)(F)F)cc([N+](=O)[O-])c3s2)cc1`, the selectivity ratio was > 50000.

System: not listed separately
Assay: Cytotoxicity against human HepG2 cells after 24 hrs by MTT assay
Format: cell-based
Details: not given

`CN(C)c1ccc(CN(C)c2nc(=O)c3cc(C(F)(F)F)cc([N+](=O)[O-])c3s2)cc1` and `Cc1ccc(CNc2nc(=O)c3cc(C(F)(F)F)cc([N+](=O)[O-])c3s2)n1C` cannot be ordered by CC50 at 24 h: > 10 µM for the first, > 10 µM for the second.

`COC(=O)[C@@H]1OC2(CCN(c3nc(=O)c4cc(C(F)(F)F)cc([N+](=O)[O-])c4s3)CC2)O[C@H]1c1ccccc1` and `CN(C(=O)CN1CCN(c2nc(=O)c3cc(C(F)(F)F)cc([N+](=O)[O-])c3s2)CC1)c1ccccc1` cannot be ordered by CC50 at 24 h: > 10 µM for the first, > 10 µM for the second.

For `CCCOCC1COC2(CCN(c3nc(=O)c4cc(C(F)(F)F)cc([N+](=O)[O-])c4s3)CC2)O1` (configuration not stated), the CC50 at 24 h was > 10 µM.

System: Plasma
Assay: Metabolic stability in human plasma
Format: ADME, cell-free
Details: not given

First: CN(C)c1ccc(CN(C)c2nc(=O)c3cc(C(F)(F)F)cc([N+](=O)[O-])c3s2)cc1
Second: Cc1ccc(CNc2nc(=O)c3cc(C(F)(F)F)cc([N+](=O)[O-])c3s2)n1C
The Stability of the first is lower: 90% for the first, 108% for the second.

First: COC(=O)[C@@H]1OC2(CCN(c3nc(=O)c4cc(C(F)(F)F)cc([N+](=O)[O-])c4s3)CC2)O[C@H]1c1ccccc1
Second: CN(C(=O)CN1CCN(c2nc(=O)c3cc(C(F)(F)F)cc([N+](=O)[O-])c3s2)CC1)c1ccccc1
The Stability of the first is lower: 90% for the first, 95% for the second.

Compound `CCCOCC1COC2(CCN(c3nc(=O)c4cc(C(F)(F)F)cc([N+](=O)[O-])c4s3)CC2)O1` (configuration not stated) has a Stability of 98%.

System: not listed separately
Assay: Antiproliferative activity against human HUVEC cells after 72 hrs by methylene blue staining
Format: cell-based
Details: not given

Going from `CN(C)c1ccc(CN(C)c2nc(=O)c3cc(C(F)(F)F)cc([N+](=O)[O-])c3s2)cc1` to `Cc1ccc(CNc2nc(=O)c3cc(C(F)(F)F)cc([N+](=O)[O-])c3s2)n1C`, the GI50 at 72 h falls from > 50 µM to 17 µM.

First: COC(=O)[C@@H]1OC2(CCN(c3nc(=O)c4cc(C(F)(F)F)cc([N+](=O)[O-])c4s3)CC2)O[C@H]1c1ccccc1
Second: CN(C(=O)CN1CCN(c2nc(=O)c3cc(C(F)(F)F)cc([N+](=O)[O-])c3s2)CC1)c1ccccc1
The GI50 at 72 h of the first is higher: > 50 µM for the first, 18 µM for the second.

For `CCCOCC1COC2(CCN(c3nc(=O)c4cc(C(F)(F)F)cc([N+](=O)[O-])c4s3)CC2)O1` (configuration not stated), the GI50 at 72 h was > 50 µM.

System: not listed separately
Assay: Antiproliferative activity against human K562 cells after 72 hrs by electronic cell analysis
Format: cell-based
Details: not given

First: CN(C)c1ccc(CN(C)c2nc(=O)c3cc(C(F)(F)F)cc([N+](=O)[O-])c3s2)cc1
Second: Cc1ccc(CNc2nc(=O)c3cc(C(F)(F)F)cc([N+](=O)[O-])c3s2)n1C
The GI50 at 72 h of the first is higher: > 50 µM for the first, 21 µM for the second.

Compared with `COC(=O)[C@@H]1OC2(CCN(c3nc(=O)c4cc(C(F)(F)F)cc([N+](=O)[O-])c4s3)CC2)O[C@H]1c1ccccc1`, `CN(C(=O)CN1CCN(c2nc(=O)c3cc(C(F)(F)F)cc([N+](=O)[O-])c3s2)CC1)c1ccccc1` is lower in GI50 at 72 h: > 50 µM for the first, 30 µM for the second.

With `CCCOCC1COC2(CCN(c3nc(=O)c4cc(C(F)(F)F)cc([N+](=O)[O-])c4s3)CC2)O1` (configuration not stated) the GI50 at 72 h was > 50 µM.

System: Mycolicibacterium smegmatis
Assay: Antimycobacterial activity against Mycobacterium smegmatis 700084 after 48 hrs by broth microdilution assay
Format: functional
Details: Mycolicibacterium smegmatis, 700084, 48 h

Going from `CN(C)c1ccc(CN(C)c2nc(=O)c3cc(C(F)(F)F)cc([N+](=O)[O-])c3s2)cc1` to `Cc1ccc(CNc2nc(=O)c3cc(C(F)(F)F)cc([N+](=O)[O-])c3s2)n1C`, the MIC rises from 1 ng/mL (≈ 0.00228 µM) to 125 ng/mL (≈ 0.314 µM) (120-fold).

`COC(=O)[C@@H]1OC2(CCN(c3nc(=O)c4cc(C(F)(F)F)cc([N+](=O)[O-])c4s3)CC2)O[C@H]1c1ccccc1` and `CN(C(=O)CN1CCN(c2nc(=O)c3cc(C(F)(F)F)cc([N+](=O)[O-])c3s2)CC1)c1ccccc1` are the same in MIC: 15 ng/mL (≈ 0.0272 µM) for the first, 15 ng/mL (≈ 0.0296 µM) for the second.

For `CCCOCC1COC2(CCN(c3nc(=O)c4cc(C(F)(F)F)cc([N+](=O)[O-])c4s3)CC2)O1` (configuration not stated), the MIC was 4 ng/mL (≈ 0.00817 µM).

System: Mycolicibacterium fortuitum
Assay: Antimycobacterial activity against Mycobacterium fortuitum B
Format: functional
Details: not given

First: CN(C)c1ccc(CN(C)c2nc(=O)c3cc(C(F)(F)F)cc([N+](=O)[O-])c3s2)cc1
Second: Cc1ccc(CNc2nc(=O)c3cc(C(F)(F)F)cc([N+](=O)[O-])c3s2)n1C
The MIC of the first is 8-fold lower: 6.25 ng/mL (≈ 0.0143 µM) for the first, 50 ng/mL (≈ 0.126 µM) for the second.

First: COC(=O)[C@@H]1OC2(CCN(c3nc(=O)c4cc(C(F)(F)F)cc([N+](=O)[O-])c4s3)CC2)O[C@H]1c1ccccc1
Second: CN(C(=O)CN1CCN(c2nc(=O)c3cc(C(F)(F)F)cc([N+](=O)[O-])c3s2)CC1)c1ccccc1
The MIC of the first is 2-fold lower: 6.25 ng/mL (≈ 0.0113 µM) for the first, 12.5 ng/mL (≈ 0.0246 µM) for the second.

Compound `CCCOCC1COC2(CCN(c3nc(=O)c4cc(C(F)(F)F)cc([N+](=O)[O-])c4s3)CC2)O1` (configuration not stated) has an MIC of 3.1 ng/mL (≈ 0.00633 µM).

System: Liver
Assay: Metabolic stability in mouse liver microsomes
Format: ADME, Microsome
Details: not given

Going from `CN(C)c1ccc(CN(C)c2nc(=O)c3cc(C(F)(F)F)cc([N+](=O)[O-])c3s2)cc1` to `Cc1ccc(CNc2nc(=O)c3cc(C(F)(F)F)cc([N+](=O)[O-])c3s2)n1C`, the Stability rises from 8% to 37%.

Compared with `CCCOCC1COC2(CCN(c3nc(=O)c4cc(C(F)(F)F)cc([N+](=O)[O-])c4s3)CC2)O1` (configuration not stated), `CN(C(=O)CN1CCN(c2nc(=O)c3cc(C(F)(F)F)cc([N+](=O)[O-])c3s2)CC1)c1ccccc1` is lower in Stability: 9% for the first, 2% for the second.

System: Liver microsomes
Assay: Metabolic stability in human liver microsomes
Format: ADME, Microsome
Details: not given

First: CN(C)c1ccc(CN(C)c2nc(=O)c3cc(C(F)(F)F)cc([N+](=O)[O-])c3s2)cc1
Second: Cc1ccc(CNc2nc(=O)c3cc(C(F)(F)F)cc([N+](=O)[O-])c3s2)n1C
The Stability of the first is lower: 6% for the first, 28% for the second.

Compared with `CCCOCC1COC2(CCN(c3nc(=O)c4cc(C(F)(F)F)cc([N+](=O)[O-])c4s3)CC2)O1` (configuration not stated), `CN(C(=O)CN1CCN(c2nc(=O)c3cc(C(F)(F)F)cc([N+](=O)[O-])c3s2)CC1)c1ccccc1` is higher in Stability: 6% for the first, 13% for the second.

System: not listed separately
Assay: Therapeutic index, ratio of GI50 for human K562 cells to MIC for Mycobacterium smegmatis 700084
Format: cell-based
Details: read-out: TI

With `CN(C)c1ccc(CN(C)c2nc(=O)c3cc(C(F)(F)F)cc([N+](=O)[O-])c3s2)cc1` the selectivity ratio was > 50000.

System: not listed separately
Assay: Therapeutic index, ratio of CC50 for human HeLa cells to MIC for Mycobacterium smegmatis 700084
Format: cell-based
Details: read-out: TI

For `CN(C)c1ccc(CN(C)c2nc(=O)c3cc(C(F)(F)F)cc([N+](=O)[O-])c3s2)cc1`, the selectivity ratio was > 50000.

Source: ChEMBL document CHEMBL2177104, “Identification of antitubercular benzothiazinone compounds by ligand-based design” (J Med Chem, 2012)
